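The compound was tested at five concentrations on cells cultured in 96-well plates, with a 48-hour exposure period. At the TGI there is no net growth.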
Experiments:
Experiment in all cases: NCI tumour cell line growth inhibition, 48 h
[1] = test system: SK-OV-3 ovarian
[2] = test system: K-562 leukemia
[3] = test system: DU-145 prostate
[4] = test system: MCF7 breast
[5] = test system: NCI-H23 lung
[6] = test system: LOX IMVI melanoma
[7] = test system: CAKI-1 renal
[8] = test system: TK-10 renal
[9] = test system: MDA-MB-435
[10] = test system: KM12 colon
[11] = test system: COLO 205 colon
[12] = test system: OVCAR-8 ovarian
[13] = test system: M14 melanoma
[14] = test system: HCC-2998 colon
[15] = test system: NCI/ADR-RES ovarian
[16] = test system: HS 578T breast
[17] = test system: SF-268 CNS
[18] = test system: PC-3 prostate
[19] = test system: NCI-H460 lung
[20] = test system: MDA-N
[21] = test system: 786-0 renal
[22] = test system: HCT-15 colon
[23] = test system: MOLT-4 leukemia
[24] = test system: HOP-62 NSCLC
[25] = test system: A498 renal
[26] = test system: EKVX NSCLC
[27] = test system: SN12C renal
[28] = test system: HOP-92 NSCLC
[29] = test system: ACHN renal
[30] = test system: UO-31 renal
[31] = test system: NCI-H226 lung
[32] = test system: RPMI-8226 leukemia
[33] = test system: RXF 393 renal
[34] = test system: IGROV1 ovarian
[35] = test system: MDA-MB-231 breast
[36] = test system: UACC-257 melanoma
[37] = test system: T-47D breast
[38] = test system: CCRF-CEM leukemia
[39] = test system: HL-60(TB) leukemia
[40] = test system: UACC-62 melanoma
[41] = test system: SK-MEL-5 melanoma
[42] = test system: SK-MEL-2 melanoma
[43] = test system: MALME-3M melanoma
[44] = test system: HCT-116 colon
[45] = test system: NCI-H522 lung
[46] = test system: SNB-19 CNS
[47] = test system: SF-539 CNS
[48] = test system: HT29 colon
[49] = test system: OVCAR-3 ovarian
[50] = test system: U251 CNS
[51] = test system: SF-295 CNS
[52] = test system: BT-549 breast
[53] = test system: SW-620 colon
[54] = test system: A549 NSCLC
[55] = test system: OVCAR-5 ovarian
[56] = test system: SK-MEL-28 melanoma
[57] = test system: OVCAR-4 ovarian
[58] = test system: SNB-75 CNS
[59] = test system: SR leukemia

For O=C1OC2c3ccccc3C(=O)C2(c2ccccc2)N1c1ccccc1 (stereo not given), the TGI [1] was > 200 µM, the TGI [2] was > 200 µM and the TGI [3] was > 200 µM. The TGI [4] was > 200 µM, the TGI [5] was > 200 µM and the TGI [6] was > 200 µM. For the same molecule, the TGI [7] was > 200 µM, the TGI [8] was > 200 µM and the TGI [9] was > 200 µM. For the same molecule, the TGI [10] was > 200 µM, the TGI [11] was > 200 µM and the TGI [12] was > 200 µM. For the same molecule, the TGI [13] was > 200 µM, the TGI [14] was > 200 µM and the TGI [15] was > 200 µM. The TGI [16] was > 200 µM, the TGI [17] was > 200 µM and the TGI [18] was > 200 µM. For the same molecule, the TGI [19] was > 200 µM, the TGI [20] was > 200 µM and the TGI [21] was > 200 µM. For the same molecule, the TGI [22] was > 200 µM, the TGI [23] was > 200 µM and the TGI [24] was > 200 µM. The TGI [25] was > 200 µM, the TGI [26] was > 200 µM and the TGI [27] was > 200 µM. The TGI [28] was > 200 µM, the TGI [29] was > 200 µM and the TGI [30] was > 200 µM. The TGI [31] was > 200 µM, the TGI [32] was > 200 µM and the TGI [33] was > 200 µM. For the same molecule, the TGI [34] was > 200 µM, the TGI [35] was > 200 µM and the TGI [36] was > 200 µM. The TGI [37] was > 200 µM, the TGI [38] was > 200 µM and the TGI [39] was > 200 µM. The TGI [40] was > 200 µM, the TGI [41] was > 200 µM and the TGI [42] was > 200 µM. The TGI [43] was > 200 µM, the TGI [44] was > 200 µM and the TGI [45] was > 200 µM. For the same molecule, the TGI [46] was > 200 µM, the TGI [47] was > 200 µM and the TGI [48] was > 200 µM. The TGI [49] was > 200 µM, the TGI [50] was > 200 µM and the TGI [51] was > 200 µM. For the same molecule, the TGI [52] was > 200 µM, the TGI [53] was > 200 µM and the TGI [54] was > 200 µM. The TGI [55] was > 200 µM, the TGI [56] was > 200 µM and the TGI [57] was > 200 µM. The TGI [58] was > 200 µM.
For Clc1ccc2c(c1)CC1C[N+]3=C(CCCC3)C1=C2 (stereo not given), the TGI [1] was > 100 µM, the TGI [2] was > 100 µM and the TGI [3] was > 100 µM. For the same molecule, the TGI [4] was > 100 µM, the TGI [5] was > 100 µM and the TGI [6] was > 100 µM. For the same molecule, the TGI [7] was > 100 µM, the TGI [8] was > 100 µM and the TGI [9] was > 100 µM. For the same molecule, the TGI [10] was > 100 µM, the TGI [11] was > 100 µM and the TGI [12] was > 100 µM. The TGI [13] was > 100 µM, the TGI [15] was > 100 µM and the TGI [16] was > 100 µM. For the same molecule, the TGI [17] was > 100 µM, the TGI [18] was > 100 µM and the TGI [19] was > 100 µM. For the same molecule, the TGI [20] was > 100 µM, the TGI [21] was > 100 µM and the TGI [22] was > 100 µM. The TGI [23] was > 100 µM, the TGI [24] was > 100 µM and the TGI [25] was > 100 µM. The TGI [26] was > 100 µM, the TGI [27] was > 100 µM and the TGI [28] was > 100 µM. The TGI [29] was > 100 µM, the TGI [30] was > 100 µM and the TGI [31] was > 100 µM. The TGI [33] was > 100 µM, the TGI [34] was > 100 µM and the TGI [35] was > 100 µM. For the same molecule, the TGI [36] was > 100 µM, the TGI [37] was > 100 µM and the TGI [38] was > 100 µM. The TGI [39] was > 100 µM, the TGI [40] was > 100 µM and the TGI [41] was > 100 µM. For the same molecule, the TGI [42] was > 100 µM, the TGI [43] was > 100 µM and the TGI [44] was > 100 µM. For the same molecule, the TGI [45] was > 100 µM, the TGI [46] was > 100 µM and the TGI [48] was > 100 µM. For the same molecule, the TGI [49] was > 100 µM, the TGI [50] was > 100 µM and the TGI [51] was > 100 µM. For the same molecule, the TGI [52] was > 100 µM, the TGI [53] was > 100 µM and the TGI [54] was > 100 µM. For the same molecule, the TGI [55] was > 100 µM, the TGI [56] was > 100 µM and the TGI [57] was > 100 µM. For the same molecule, the TGI [58] was > 100 µM.
With COc1ccc(N=Nc2c(C)c(C#N)c(=S)n(C3OC(COC(C)=O)C(OC(C)=O)C(OC(C)=O)C3OC(C)=O)c2-c2ccccc2)cc1 (stereo not given) the TGI [2] was > 100 µM, the TGI [3] was 19.6 µM and the TGI [4] was 17.5 µM. For the same molecule, the TGI [5] was 34.6 µM, the TGI [59] was > 100 µM and the TGI [6] was 17.9 µM. The TGI [7] was 21.3 µM, the TGI [8] was 34.2 µM and the TGI [9] was 27.4 µM. It also gave a TGI [10] of 20.6 µM, a TGI [11] of 22.9 µM and a TGI [13] of 10.7 µM. For the same molecule, the TGI [14] was > 100 µM, the TGI [15] was 24.4 µM and the TGI [18] was 21.3 µM. The TGI [19] was > 100 µM, the TGI [20] was 22.9 µM and the TGI [21] was 10.4 µM. For the same molecule, the TGI [22] was 77.2 µM, the TGI [23] was 47.9 µM and the TGI [24] was 26.5 µM. The TGI [25] was 7.09 µM, the TGI [27] was 29.9 µM and the TGI [28] was 7.83 µM. The TGI [29] was > 100 µM, the TGI [30] was 94.7 µM and the TGI [32] was > 100 µM. It also gave a TGI [33] of 23.7 µM, a TGI [35] of 22.3 µM and a TGI [36] of 75.8 µM. For the same molecule, the TGI [37] was 41.2 µM, the TGI [38] was > 100 µM and the TGI [39] was > 100 µM. It also gave a TGI [42] of 22.8 µM, a TGI [43] of 29.9 µM and a TGI [44] of 15.6 µM. For the same molecule, the TGI [46] was 24.2 µM, the TGI [48] was > 100 µM and the TGI [49] was 31.1 µM. The TGI [50] was 22.6 µM, the TGI [51] was 82.1 µM and the TGI [52] was 17.6 µM. The TGI [53] was 11.1 µM, the TGI [54] was 29.7 µM and the TGI [55] was 30.8 µM. It also gave a TGI [56] of 20.3 µM and a TGI [57] of 12.1 µM.

From PubChem BioAssay (NCI)
